# Assay results published in paper PMC7811517, “Human neuronal signaling and communication assays to assess functional neurotoxicity” (Archives of Toxicology, 2020).
# Where “and” joins values, the source holds several entries; their conditions need not be identical. Identical values can stand only once. Entries after “also recorded” stand apart in the source; their conditions may differ. Like-named read-outs stand apart in the source and are kept apart here.
# What was measured:
# [1] = test system: P2X receptors; assay: Ca2+-imaging of LUHMES neurons, P2X receptor antagonists against ATP or α,β-meATP response; assay type: cell-based, human; conditions: for pIC50 on the response triggered by ATP: 1 µM ATP (~EC75)
# Procedure: (§1) The signals of individual cells could not be captured. […] The total recording never exceeded 8 min.
# (§2) (Ritz et al. [2015]). […].
# [2] = test system: LUHMES neurons; assay type: cell-based, human
# Procedure: as §1
# [3] = target: dopamine transporter (DAT) (Homo sapiens, UniProt Q01959); assay type: cell-based
# Procedure: LUHMES cells were differentiated for 6 days in a 24-well format and then treated with the indicated DAT inhibitors. […] After 10 min at 37 °C, the supernatant was removed and cells were washed with PBS. Then lysis buffer was added (PBS containing 0.2% Triton X-100). The amount of radioactive label taken up by the cells as well as the residual activity in the cell supernatant (plus washing buffer) was measured on a scintillation counter.
# [4] = test system: P2X receptors; assay: Ca2+-imaging of LUHMES neurons, P2 receptor agonist responses; assay type: cell-based, human; conditions: for pEC50 in Ca2+-imaging: LUHMES neurons, agonist concentration-response
# Procedure: as §1
# (Ritz et al. [2015]). The logarithm of the half-maximal effective concentration (logEC50) between 0 and the upper limit (d), which was set to 1, is represented by ẽ, x denotes the concentration and b stands for the slope parameter (Ritz et al. [2015]).
# [5] = test system: LUHMES neurons; assay: Manual patch clamp recordings of LUHMES neurons; assay type: cell-based, human
# Source text: Manual patch clamp was executed with an EPC 10 USB patch clamp amplifier and PatchMaster Software (version 2 × 90.5; HEKA Elektronik, Lambrecht, Germany). […] Intracellular solution contained [mM]: 107 K-gluconate, 10 KCl, 1 MgCl2, 10 HEPES, 5 EGTA, 4 Na2ATP and 0.2 NaGTP, pH 7.20. Recordings were obtained at room temperature. The cells were kept at a holding potential of − 70 mV. In voltage clamp mode NaV and voltage-gated potassium (KV) channels were activated for 300 ms by voltage pulses ranging from − 70 to + 70 mV in + 10 mV steps after a hyperpolarizing step to − 120 mV for 200 ms. To investigate the firing behavior, cells were stimulated in current clamp mode by hyper- and depolarizing current pulses of 300 ms duration. The pulse protocol was executed at 0.2 Hz. For agonist tests in current clamp and voltage clamp mode, cells were kept at a holding potential of − 70 mV and the compounds were applied for 5 s.
# The raw data of the manual patch clamp recordings were analyzed in scripts written in R. For leak subtraction, the P/4 algorithms of PatchMaster and QPatch Software were used in the voltage clamp recordings for manual and automated patch clamp experiments, respectively.
# [6] = test system: NaV channels; assay: Automated patch clamp recordings (QPatch) of NaV channel currents in LUHMES neurons; assay type: cell-based, human
# [7] = test system: NaV1.1; conditions: ref McCormack et al. [2013]; cited from earlier work
# [8] = test system: NaV1.3; conditions: ref McCormack et al. [2013]; cited from earlier work
# [9] = test system: NaV1.2; conditions: ref McCormack et al. [2013]; cited from earlier work
# [10] = test system: NaV1.6; conditions: ref McCormack et al. [2013]; cited from earlier work
# [11] = test system: NaV1.7; conditions: ref McCormack et al. [2013]; cited from earlier work
# [12] = test system: rat hippocampal neurons; conditions: cited from earlier work
# [13] = test system: NaV channels; assay: Ca2+-imaging of LUHMES neurons, NaV channel toxicants; assay type: cell-based, human
# Procedure: as §1, §2
# [14] = test system: mice; conditions: mouse, in vivo; cited from earlier work
# [15] = target: human P2X3 receptors; conditions: ref Garcia-Guzman et al. [1997]; cited from earlier work
# [16] = 1 µM DA and 0.3 µM AMP, NNC 55–0396 30 µM
# dopamine transporter (DAT), sequence (Q01959 whole entry): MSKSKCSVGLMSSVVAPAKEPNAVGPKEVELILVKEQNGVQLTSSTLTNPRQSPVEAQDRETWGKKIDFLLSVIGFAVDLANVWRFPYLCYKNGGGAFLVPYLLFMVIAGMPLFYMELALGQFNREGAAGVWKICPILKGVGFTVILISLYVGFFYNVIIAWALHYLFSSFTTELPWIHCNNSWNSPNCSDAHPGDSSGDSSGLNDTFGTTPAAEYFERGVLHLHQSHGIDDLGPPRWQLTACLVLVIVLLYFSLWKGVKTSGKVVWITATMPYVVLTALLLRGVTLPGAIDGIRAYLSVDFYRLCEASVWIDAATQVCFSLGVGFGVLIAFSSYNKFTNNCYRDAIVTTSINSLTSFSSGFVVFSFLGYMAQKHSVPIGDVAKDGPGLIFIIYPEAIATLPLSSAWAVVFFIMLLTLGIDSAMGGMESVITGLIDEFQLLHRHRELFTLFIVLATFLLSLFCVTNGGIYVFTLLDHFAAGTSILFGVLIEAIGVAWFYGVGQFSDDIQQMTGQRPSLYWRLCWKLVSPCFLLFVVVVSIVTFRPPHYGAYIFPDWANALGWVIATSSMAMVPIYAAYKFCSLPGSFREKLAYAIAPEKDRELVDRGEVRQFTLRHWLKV
compound,measurement,setting,value
O=C(O)c1cc(C(=O)O)c(C(=O)N(Cc2cccc(Oc3ccccc3)c2)[C@H]2CCCc3ccccc32)cc1C(=O)O [A-317491],block of the response of ATP,[1],up to 40%
same,effect on ATP signals,[1],only a weak partial effect
same,"effect on the response to α,β-meATP",[1],potently and completely blocked
same,"pIC50 on the response triggered by α,β-meATP",[1],6.31 ± 0.05
"CC(N)Cc1ccccc1 (centres unmarked) [AMP, amphetamine]",main oscillation frequency,"[2]; 1 µM DA (n = 6), 0.3 µM AMP (n = 10), FFT analysis",0.234 ± 0.007 Hz and 0.2–0.23 Hz
same,recordings with oscillations of the Ca2+-imaging signal,"[2]; 1 µM DA (n = 125), 0.3 µM AMP (n = 50)",94.0%
same,effect on uptake of [3H]DA,[3],inhibited; also recorded: significantly reduced
"Nc1ncnc2c1ncn2[C@@H]1O[C@H](COP(=O)(O)OP(=O)(O)OP(=O)(O)O)[C@@H](O)[C@H]1O [ATP, Adenosine 5'-triphosphate]",pEC50 in Ca2+-imaging,[4],7.35 ± 0.08
same,half-life of the fast decrease of the fluorescence signal,[4]; at 100 µM ATP,~ 8 s
same,response to agonist application,"[5]; 100 µM ATP for 5 s, current clamp",triggered action potential firing
Nc1ncnc2c1ncn2[C@@H]1O[C@H](COP(=O)(O)OP(=O)(O)OP(=O)(O)O)[C@@H](OC(=O)c2ccc(C(=O)c3ccccc3)cc2)[C@H]1O [BzATP],pEC50 in Ca2+-imaging,[4],7.76 ± 0.11
"NCCc1ccc(O)c(O)c1 [DA, dopamine]",main oscillation frequency,[2],0.201 ± 0.002 Hz and 0.2–0.23 Hz
same,recordings with oscillations of the Ca2+-imaging signal,[2],61.6% and 62%
O=C(Nc1ccc(S(=O)(=O)Nc2nccs2)cc1)C(c1ccccc1)c1ccccc1 [ICA-121431],"pIC50, NaV current with 50% of channels inactivated",[6]; prepulse to −55 mV,6.33 ± 0.10 and 6.3
same,IC50,[7],23 nM
same,IC50,[8],13 nM
same,IC50,[9],240 nM
same,IC50,[10],13000 nM
same,IC50,[11],10000 nM
"CCN(CC)CC(=O)Nc1c(C)cccc1C [Lidocaine, lidocaine]","pIC50, NaV current, 1st pulse",[6],3.03 ± 0.07
same,"pIC50, NaV current, 10th pulse",[6],3.57 ± 0.06
same,pIC50 in rat hippocampal neurons,[12],~ 3.4
"CC(C)[C@H]1c2ccc(F)cc2CC[C@@]1(CCN(C)CCCc1nc2ccccc2[nH]1)OC(=O)C1CC1.Cl.Cl [NNC 55–0396, (1S,2S)-2-(2-(N-[(3-benzimidazol-2-yl)propyl]-N-methylamino)ethyl)-6-fluoro-1,2,3,4-tetrahydro-1-isopropyl-2-naphtyl cyclopropanecarboxylate dihydrochloride]","signal amplitude compared to control, response to AMP",[2],2.1 ± 0.02%
same,"signal amplitude compared to control, response to DA",[2],3.0 ± 0.02%
same,"inhibition of amplitude, DA/AMP induced oscillations",[2]; [16],> 95%
same,"signal amplitude compared to control, DA/AMP induced oscillations",[2]; [16],2–3%
"Nc1ncnc2c1ncn2[C@@H]1O[C@H](COP(=O)(O)OP(=O)(O)OP(=O)(O)O)[C@H]2OC3(O[C@H]21)C([N+](=O)[O-])=CC(=[N+]([O-])[O-])C=C3[N+](=O)[O-] (some centres unmarked) [TNP-ATP, 2′,3′-O-(2,4,6-trinitrophenyl) adenosine 5′-triphosphate]","pIC50 on the response triggered by α,β-meATP","[1]; 0.1 µM α,β-meATP (~EC75)",7.5
same,pIC50 on the response triggered by ATP,[1],6.1 and 6.05 ± 0.06
"NC1=N[C@H](O)[C@H]2[C@H]3O[C@]4(O)O[C@@H]([C@@H](O)[C@@]2(N1)[C@@H]4O)[C@]3(O)CO [TTX, tetrodotoxin]",pIC50 on the response triggered by VTD,[13],7.9 and 7.93 ± 0.06
same,"pIC50, NaV current (pulse not specified)",[6],~ 7.2
same,"pIC50, NaV current, 1st pulse",[6],7.23 ± 0.05
same,"pIC50, NaV current, 10th pulse",[6],7.26 ± 0.05
same,effect on rapid transient inward currents,[5],blocked
same,"signal amplitude compared to control, response to AMP",[2],21% and 20.5 ± 0.02%
same,"signal amplitude compared to control, response to DA",[2],69% and 68.6 ± 0.06%
"COc1ccc(C(=O)O[C@H]2CC[C@@]3(C)[C@@H]4CC[C@H]5[C@]6(O)C[C@H](O)[C@@]7(O)[C@@H](CN8C[C@@H](C)CC[C@H]8[C@@]7(C)O)[C@]6(O)C[C@@]53O[C@]24O)cc1OC [VTD, veratridine]","pEC50, rise of [Ca2+]i",[13]; LUHMES neurons,5.4 and 5.38 ± 0.03
same,effect on action potential duration,"[5]; 1 µM VTD, current clamp, n = 4",reversibly increased the action potential duration
COC(=O)[C@H]1[C@@H](OC(=O)c2ccccc2)C[C@@H]2CC[C@H]1N2C [cocaine],effect on uptake of [3H]DA,[3],inhibited; also recorded: significantly reduced
COC(=O)C1=C(C)NC(C)=C(C(=O)OC)C1c1ccccc1[N+](=O)[O-] [nifedipine],"signal amplitude compared to control, response to AMP",[2],51% and 51.4 ± 0.03%
same,"signal amplitude compared to control, response to DA",[2],70% and 70.2 ± 0.05%
CN1Cc2c(N)cccc2C(c2ccccc2)C1 (centres unmarked) [nomifensine],effect on oscillations induced by AMP and DA,[2],blocked
"C[C@@H]1C[C@@H]2O[C@@H]3[C@@H](C)[C@H](O)[C@@H]4O[C@@]5(CCCO5)[C@@H](C)[C@H](C)[C@H]4O[C@H]3C[C@H]2O[C@H]2C[C@H]3O[C@H]4C/C=C\C[C@H]5O[C@H]6C=C[C@H]7O[C@H]8[C@H](O)[C@H]9O[C@@H](/C=C/[C@H](O)CO)C=CC[C@@H]9O[C@@H]8C[C@@H]7O[C@@H]6C=C[C@@H]5O[C@@H]4C[C@@H](O)[C@]3(C)O[C@@H]2C1 [pCTX-2, pacific ciguatoxin-2]",amplitude of the evoked response,[13],1779 ± 50 AU
same,effect compared to control,[13],no effect
same,effect on [Ca2+]i / Ca2+-imaging signal,[13],induced an increase of the baseline and oscillations; also recorded: increased [Ca^2+]i
same,effect on the amplitude induced by 3 µM VTD,[13],significantly reduced
same,acute toxicity (mice),[14],2.3 µg/kg
Cc1ccc(C(=O)Nc2ccc(S(=O)(=O)O)c3cc(S(=O)(=O)O)cc(S(=O)(=O)O)c23)cc1NC(=O)c1cccc(NC(=O)Nc2cccc(C(=O)Nc3cc(C(=O)Nc4ccc(S(=O)(=O)O)c5cc(S(=O)(=O)O)cc(S(=O)(=O)O)c45)ccc3C)c2)c1 [suramin],"pIC50 on the response triggered by α,β-meATP","[1]; 0.1 µM α,β-meATP (~EC75)",4.51 ± 0.03 and 4.5
same,pIC50 on the response triggered by ATP,[1],4.09 ± 0.03 and 4.1
same,pIC50 for human P2X3 receptors,[15],approximately 4.8
"Nc1ncnc2c1ncn2[C@@H]1O[C@H](COP(=O)(O)CP(=O)(O)OP(=O)(O)O)[C@@H](O)[C@H]1O [α,β-meATP]",pEC50 in Ca2+-imaging,[4],7.52 ± 0.03 and 7.5
same,"pEC50, amplitude normalized to K+ amplitude","[4]; normalized to 30 mM K+ application, 5 differentiations",7.58 ± 0.04
microcystin-LF,effect alone in Ca2+-imaging,[13],no significate effect; also recorded: did not show any effects
same,effect on the response to 3 µM VTD,[13],no significate effect; also recorded: did not show any effects
